Target: T1, Purine nucleoside phosphorylase (Homo sapiens) (UniProt P00491)
T1 sequence (whole entry): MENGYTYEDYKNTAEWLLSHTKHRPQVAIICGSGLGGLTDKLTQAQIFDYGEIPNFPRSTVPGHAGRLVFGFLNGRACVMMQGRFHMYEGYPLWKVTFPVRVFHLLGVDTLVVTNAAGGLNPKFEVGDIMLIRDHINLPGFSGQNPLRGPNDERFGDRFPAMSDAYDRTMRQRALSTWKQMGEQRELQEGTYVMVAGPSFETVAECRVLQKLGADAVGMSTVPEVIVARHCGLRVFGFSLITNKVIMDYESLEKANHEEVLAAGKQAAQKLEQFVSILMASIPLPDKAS
Details: Urine

Q: How did the NS turn out when OC[C@H]1CN(Cc2n[nH]c3c(O)ncnc23)CC1O (stereo partly specified) was run?
A: The NS was “No slow onset”.

Source: ChEMBL document CHEMBL1144941, “Synthesis of second-generation transition state analogues of human purine nucleoside phosphorylase” (J Med Chem, 2003)
